Earlier results as cited in US20100210586A1, “POMEGRANATE EXTRACTS, NUTRITIONAL PRODUCTS CONTAINING THEM AND THEIR USES” (PROBELTE PHARMA, S.A., priority 2007, published 2010).

Details: oral

absorption when administered orally: poorly absorbed
Structure (SMILES): O=c1oc2c(O)c(O)cc3c(=O)oc4c(O)c(O)cc1c4c23 [ellagic acid]
